Earlier results, collected in publication PMC5260004, “Permeability across a novel microfluidic blood-tumor barrier model” (Fluids and Barriers of the CNS, 2017).

Test system: P-gp
Set-up: method as in PMID 23916719
Conditions: in vivo, rhodamine 123 and an inhibitor of P-gp administered concurrently

COC(=O)c1ccccc1-c1c2ccc(=N)cc-2oc2cc(N)ccc12 [Rho123, Rhodamine 123]
fold higher dye accumulation in brain with P-gp inhibitor than in the absence of efflux inhibition: 10- to 12 fold
